Reference: patent US7217727B2, “Phospholipase inhibitors” (Eli Lilly and Company, priority 2003, dated 2007)

molecular target: T1, Recombinant Hepatic Lipase (Homo sapiens, UniProt P11150); test: Hepatic Lipase Phospholipase Assay (ThioPEG substrate, DTNB read at 412 nm); format: biochemical; conditions: recombinant HL 12.5 nM, 37° C., pH 8.3, read-out: IC50 (nM), hepatic lipase inhibition assay
T1 construct: made in house; host or cells: AV12 cells
T1 sequence (P11150 23-499): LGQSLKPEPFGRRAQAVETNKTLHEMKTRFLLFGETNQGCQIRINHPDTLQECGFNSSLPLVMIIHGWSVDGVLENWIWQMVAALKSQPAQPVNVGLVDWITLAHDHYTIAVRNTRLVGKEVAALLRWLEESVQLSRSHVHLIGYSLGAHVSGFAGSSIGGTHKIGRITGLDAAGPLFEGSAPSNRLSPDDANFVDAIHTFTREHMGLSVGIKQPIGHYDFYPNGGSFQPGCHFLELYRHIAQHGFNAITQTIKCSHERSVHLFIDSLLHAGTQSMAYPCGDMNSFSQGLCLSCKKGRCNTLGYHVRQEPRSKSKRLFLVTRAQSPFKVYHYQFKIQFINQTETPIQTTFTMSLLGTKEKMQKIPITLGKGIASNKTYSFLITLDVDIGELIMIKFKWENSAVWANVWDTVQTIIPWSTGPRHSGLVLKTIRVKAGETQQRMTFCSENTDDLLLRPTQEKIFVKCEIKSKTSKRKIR
Description: Hepatic Lipase Phospholipase Assay
Efficacy was determined by testing various compounds of the invention in a hepatic lipase and/or endothelial lipase assay discussed below, and disclosed in U.S. patent application Ser. No. 09/609, 871 filed Jul. 3, 2000 incorporated herein in its entirety for U.S Patent office purposes.
• Substrate Buffer A: 100 mM Hepes, pH 8.3 at 37° C. • Substrate Buffer B: 100 mM Hepes, pH 8.3 at 37° C. with 6.83 mM Triton X100 • ThioPEG: Molecular wt. of 540 • Recombinant Hepatic Lipase • Thiophospholipid: about 0.42 mM thiophospholipid in chloroform • DTNB Solution: about […] DTNB in DMSO (dimethyl sulfoxide) Hepes Buffer A
For Hepes Buffer A,.there is 2.4 g Hepes/100 mL water. Therefore 36 grams of Hepes is dissolved in 1500 mL of water. The mix solution's pH is adjusted to pH83 at 37° C. and brought up to 1500 mL with water. 500 mL of Buffer A is retained for the Protein Buffer.
To the remaining 1000 mL of Hepes Buffer A, 4.49 g of Triton X-100 is added and then the combination mixed on a stir plate. It is optimal that stock Buffer A not be too cold or Triton X-100 will take a long time to go into solution […]
The enzyme is stored at −80° C. in 100 or 50 μL portions. […] The enzyme should then be stored on ice until ready to use. […]

Structure (SMILES)	IC50 [nM]
O=C(NCc1ccccc1)n1oc2ccccc2c1=O	60

test system: not given; test: not given; conditions: not given

Structure (SMILES)	melting point [°C]
Cc1cccc(C(C)C)c1CNC(=O)n1oc2ccccc2c1=O [Example 17, 3-Oxo-3H-benzo[d]isoxazole-2-carboxylic acid 2-isopropyl-6-methyl-benzylamide]	112 to 114
O=C(NCCc1ccccc1)n1oc2ccccc2c1=O [Example 23, 3-Oxo-3H-benzo[d]isoxazole-2-carboxylic acid phenethyl-amide]	106 to 107
O=C(NCc1ccccc1F)n1oc2ccccc2c1=O [Example 12, 3-Oxo-3H-benzo[d]isoxazole-2-carboxylic acid 2-fluoro-benzylamide]	142 to 143
CCc1ccccc1CNC(=O)n1oc2ccccc2c1=O [Example 14, 3-Oxo-3H-benzo[d]isoxazole-2-carboxylic acid 2-ethyl-benzylamide]	107 to 109
CC(C)(C)c1ccc(CNC(=O)n2oc3ccccc3c2=O)cc1 [Example 16, 3-Oxo-3H-benzo[d]isoxazole-2-carboxylic acid 4-tert-butyl-benzylamide]	123 to 125
O=C(NCC1CCCCC1)n1oc2ccccc2c1=O [Example 6, 3-Oxo-3H-benzo[d]isoxazole-2-carboxylic acid cyclohexylmethyl-amide]	82 to 84
COc1cccc(CNC(=O)n2oc3ccccc3c2=O)c1 [Example 18, 3-Oxo-3H-benzo[d]isoxazole-2-carboxylic acid 3-methoxy-benzylamide]	99 to 100
CC(C)CCCCNC(=O)n1oc2ccccc2c1=O [Example 4, 3-Oxo-3H-benzo[d]isoxazole-2-carboxylic acid (5-methyl-hexyl)amide]	73 to 75
COc1ccc(CNC(=O)n2oc3ccccc3c2=O)cc1 [Example 19, 3-Oxo-3H-benzo[d]isoxazole-2-carboxylic acid 4-methoxy-benzylamide]	140 to 141
CCCCNC(=O)n1oc2ccccc2c1=O [Example 2, 3-Oxo-3H-benzo[d]isoxazole-2-carboxylic acid butylamide]	64 to 65
Cc1ccccc1CNC(=O)n1oc2ccccc2c1=O [Example 8, 3-Oxo-3H-benzo[d]isoxazole-2-carboxylic acid 2-methyl-benzylamide]	154 to 155
CCCCCCNC(=O)n1oc2ccccc2c1=O [Example 3, 3-Oxo-3H-benzo[d]isoxazole-2-carboxylic acid hexylamide]	46 to 48
O=C(NCc1ccccc1C(F)(F)F)n1oc2ccccc2c1=O [Example 11, 3-Oxo-3H-benzo[d]isoxazole-2-carboxylic acid 2-trifluoromethyl-benzylamide]	139 to 141
CCOc1cccc(CNC(=O)n2oc3ccccc3c2=O)c1 [Example 21, 3-Oxo-3H-benzo[d]isoxazole-2-carboxylic acid 3-ethoxy-benzylamide]	89 to 90
CCNC(=O)n1oc2ccccc2c1=O [Example 1, 3-Oxo-3H-benzo[d]isoxazole-2-carboxylic acid ethylamide]	112 to 113
CCCCCCCCNC(=O)n1oc2ccccc2c1=O [Example 5, 3-Oxo-3H-benzo[d]isoxazole-2-carboxylic acid octylamide]	47 to 48
Cc1cccc(CNC(=O)n2oc3ccccc3c2=O)c1 [Example 9, 3-Oxo-3H-benzo[d]isoxazole-2-carboxylic acid 3-methyl-benzylamide]	110 to 112
CCOc1ccccc1CNC(=O)n1oc2ccccc2c1=O [Example 20, 3-Oxo-3H-benzo[d]isoxazole-2-carboxylic acid 2-ethoxy-benzylamide]	110 to 112
CCc1cccc(CNC(=O)n2oc3ccccc3c2=O)c1 [Example 15, 3-Oxo-3H-benzo[d]isoxazole-2-carboxylic acid 3-ethyl-benzylamide]	72 to 73
CCOc1ccc(CNC(=O)n2oc3ccccc3c2=O)cc1 [Example 22, 3-Oxo-3H-benzo[d]isoxazole-2-carboxylic acid 4-ethoxy-benzylamide]	110 to 112
